# PubChem BioAssay AID248 (DTP/NCI, 2004)
# Several values for one entry are separate records, joined by “and”; a condition that tells them apart may be missing. Equal entries are not always repeated. Inconclusive results and toxic doses are left out.
# Test system: L1210 leukemia ip in BDF1 mice, survival T/C
# Test: NCI In Vivo Anticancer Drug Screen. Data for tumor model L1210 Leukemia (intraperitoneal) in B6D2F1 (BDF1) mice
# Settings: endpoint: mean survival time, higher = longer survival
# Summary of the method: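 Tumor was transplanted into mice, which were then dosed with test compound or vehicle alone. Survival was recorded for each group, and the treated figure was expressed relative to the control figure.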
smiles,measurement,setting,value
O=C(Nc1ccc(C2=NCCCN2)cc1)c1ccc(NC(=O)c2ccc(C3=NCCCN3)cc2)cc1,T/C,"dose: 0.03 mg/kg/injection, schedule: Q01DX Z (iv), vehicle: water",107 % of control
same,T/C,"dose: 0.06 mg/kg/injection, schedule: Q01DX Z (iv), vehicle: water",102 % of control
same,T/C,"dose: 0.12 mg/kg/injection, schedule: Q01DX Z (ip), vehicle: carboxymethylcellulose (CMC)",102 % of control
same,T/C,"dose: 0.12 mg/kg/injection, schedule: Q01DX Z (iv), vehicle: water",113 % of control
same,T/C,"dose: 0.2 mg/kg/injection, schedule: Q01DX006 (iv), vehicle: carboxymethylcellulose (CMC)",119 % of control
same,T/C,"dose: 0.25 mg/kg/injection, schedule: Q01DX Z (ip), vehicle: carboxymethylcellulose (CMC)",103 % of control
same,T/C,"dose: 0.25 mg/kg/injection, schedule: Q01DX Z (iv), vehicle: water",94 % of control
same,T/C,"dose: 0.4 mg/kg/injection, schedule: Q01DX006 (iv), vehicle: carboxymethylcellulose (CMC)",113 % of control
same,T/C,"dose: 0.5 mg/kg/injection, schedule: Q01DX Z (ip), vehicle: carboxymethylcellulose (CMC)",107 % of control
same,T/C,"dose: 0.5 mg/kg/injection, schedule: Q01DX Z (sc), vehicle: saline",108 % of control
same,T/C,"dose: 0.6 mg/kg/injection, schedule: Q01DX006 (iv), vehicle: carboxymethylcellulose (CMC)",120 % of control
same,T/C,"dose: 0.8 mg/kg/injection, schedule: Q01DX006 (iv), vehicle: carboxymethylcellulose (CMC)",111 % of control
same,T/C,"dose: 0.94 mg/kg/injection, schedule: Q01DX Z (ip), vehicle: saline",120 % of control
same,T/C,"dose: 1.0 mg/kg/injection, schedule: Q01DX Z (sc), vehicle: saline",110 % of control
same,T/C,"dose: 1.76 mg/kg/injection, schedule: Q01DX015 (ip), vehicle: carboxymethylcellulose (CMC)",154 % of control
same,T/C,"dose: 2.0 mg/kg/injection, schedule: Q01DX010 (ip), vehicle: other",160 % of control and 162 % of control
same,T/C,"dose: 2.0 mg/kg/injection, schedule: Q01DX Z (sc), vehicle: saline",110 % of control
same,T/C,"dose: 2.6 mg/kg/injection, schedule: Q01DX015 (ip), vehicle: carboxymethylcellulose (CMC)",230 % of control
same,T/C,"dose: 3.75 mg/kg/injection, schedule: Q01DX Z (ip), vehicle: saline",245 % of control
same,T/C,"dose: 4.0 mg/kg/injection, schedule: Q01DX010 (ip), vehicle: other",215 % of control and 217 % of control and 251 % of control
same,T/C,"dose: 4.0 mg/kg/injection, schedule: Q01DX015 (ip), vehicle: carboxymethylcellulose (CMC)",305 % of control
same,T/C,"dose: 4.0 mg/kg/injection, schedule: Q01DX Z (sc), vehicle: saline",156 % of control and 195 % of control
same,T/C,"dose: 6.0 mg/kg/injection, schedule: Q01DX015 (ip), vehicle: carboxymethylcellulose (CMC)",319 % of control
same,T/C,"dose: 8.0 mg/kg/injection, schedule: Q01DX010 (ip), vehicle: other",245 % of control and 258 % of control and 345 % of control
same,T/C,"dose: 8.0 mg/kg/injection, schedule: Q01DX Z (sc), vehicle: saline",259 % of control
same,T/C,"dose: 9.0 mg/kg/injection, schedule: Q01DX015 (ip), vehicle: carboxymethylcellulose (CMC)",180 % of control
same,T/C,"dose: 10.0 mg/kg/injection, schedule: Q01DX010 (sc), vehicle: saline",106 % of control
same,T/C,"dose: 10.0 mg/kg/injection, schedule: Q02DX004 (im), vehicle: olive oil, sesame oil, peanut oil",154 % of control and 178 % of control
same,T/C,"dose: 14.0 mg/kg/injection, schedule: Q01DX001 (ip), vehicle: other",156 % of control
same,T/C,"dose: 16.0 mg/kg/injection, schedule: Q01DX010 (ip), vehicle: other",97 % of control and 98 % of control and 100 % of control
same,T/C,"dose: 16.0 mg/kg/injection, schedule: Q01DX Z (sc), vehicle: carboxymethylcellulose (CMC)",102 % of control
same,T/C,"dose: 16.0 mg/kg/injection, schedule: Q01DX Z (sc), vehicle: saline",124 % of control
same,T/C,"dose: 20.0 mg/kg/injection, schedule: Q01DX001 (im), vehicle: steriod suspending solution",110 % of control
same,T/C,"dose: 20.0 mg/kg/injection, schedule: Q01DX010 (sc), vehicle: olive oil, sesame oil, peanut oil",87 % of control
same,T/C,"dose: 20.0 mg/kg/injection, schedule: Q01DX010 (sc), vehicle: saline",87 % of control
same,T/C,"dose: 20.0 mg/kg/injection, schedule: Q02DX004 (im), vehicle: olive oil, sesame oil, peanut oil",250 % of control and 285 % of control
same,T/C,"dose: 21.0 mg/kg/injection, schedule: Q01DX001 (ip), vehicle: carboxymethylcellulose (CMC)",156 % of control
same,T/C,"dose: 21.0 mg/kg/injection, schedule: Q01DX001 (ip), vehicle: saline",159 % of control and 172 % of control
same,T/C,"dose: 32.0 mg/kg/injection, schedule: Q01DX001 (ip), vehicle: carboxymethylcellulose (CMC)",172 % of control
same,T/C,"dose: 32.0 mg/kg/injection, schedule: Q01DX001 (ip), vehicle: other",202 % of control
same,T/C,"dose: 32.0 mg/kg/injection, schedule: Q01DX001 (ip), vehicle: saline",196 % of control
same,T/C,"dose: 40.0 mg/kg/injection, schedule: Q01DX001 (im), vehicle: steriod suspending solution",173 % of control
same,T/C,"dose: 40.0 mg/kg/injection, schedule: Q02DX004 (im), vehicle: olive oil, sesame oil, peanut oil",100 % of control and 86 % of control
same,T/C,"dose: 48.0 mg/kg/injection, schedule: Q01DX001 (ip), vehicle: carboxymethylcellulose (CMC)",219 % of control
same,T/C,"dose: 48.0 mg/kg/injection, schedule: Q01DX001 (ip), vehicle: saline",243 % of control and 247 % of control
same,T/C,"dose: 62.0 mg/kg/injection, schedule: Q01DX Z (oral), vehicle: carboxymethylcellulose (CMC)",102 % of control
same,T/C,"dose: 62.5 mg/kg/injection, schedule: Q01DX010 (oral), vehicle: other",105 % of control
same,T/C,"dose: 72.0 mg/kg/injection, schedule: Q01DX001 (ip), vehicle: saline",103 % of control and 229 % of control
same,T/C,"dose: 90.0 mg/kg/injection, schedule: Q#A X Z (oral), vehicle: carboxymethylcellulose (CMC)",100 % of control
same,T/C,"dose: 125.0 mg/kg/injection, schedule: Q01DX010 (oral), vehicle: other",177 % of control
same,T/C,"dose: 125.0 mg/kg/injection, schedule: Q01DX Z (oral), vehicle: carboxymethylcellulose (CMC)",105 % of control
same,T/C,"dose: 125.0 mg/kg/injection, schedule: Q01DX Z (oral), vehicle: saline",92 % of control
same,T/C,"dose: 135.0 mg/kg/injection, schedule: Q#A X Z (oral), vehicle: carboxymethylcellulose (CMC)",91 % of control
same,T/C,"dose: 180.0 mg/kg/injection, schedule: Q01DX Z (oral), vehicle: carboxymethylcellulose (CMC)",108 % of control
same,T/C,"dose: 202.5 mg/kg/injection, schedule: Q#A X Z (oral), vehicle: carboxymethylcellulose (CMC)",115 % of control
same,T/C,"dose: 250.0 mg/kg/injection, schedule: Q01DX010 (oral), vehicle: other",194 % of control
same,T/C,"dose: 250.0 mg/kg/injection, schedule: Q01DX Z (oral), vehicle: carboxymethylcellulose (CMC)",120 % of control
same,T/C,"dose: 250.0 mg/kg/injection, schedule: Q01DX Z (oral), vehicle: saline",89 % of control
same,T/C,"dose: 270.0 mg/kg/injection, schedule: Q01DX Z (oral), vehicle: carboxymethylcellulose (CMC)",102 % of control
same,T/C,"dose: 405.0 mg/kg/injection, schedule: Q01DX Z (oral), vehicle: carboxymethylcellulose (CMC)",120 % of control
same,T/C,"dose: 500.0 mg/kg/injection, schedule: Q01DX010 (oral), vehicle: other",122 % of control
same,T/C,"dose: 500.0 mg/kg/injection, schedule: Q01DX Z (oral), vehicle: saline",113 % of control
same,T/C,"dose: 540.0 mg/kg/injection, schedule: Q03DX Z (oral), vehicle: carboxymethylcellulose (CMC)",98 % of control
same,T/C,"dose: 800.0 mg/kg/injection, schedule: Q03DX Z (oral), vehicle: carboxymethylcellulose (CMC)",112 % of control
same,T/C,"dose: 1200.0 mg/kg/injection, schedule: Q03DX Z (oral), vehicle: carboxymethylcellulose (CMC)",120 % of control
same,T/C,"dose: 1200.0 mg/kg/injection, schedule: Q07DX Z (oral), vehicle: carboxymethylcellulose (CMC)",95 % of control
same,T/C,"dose: 1800.0 mg/kg/injection, schedule: Q07DX Z (oral), vehicle: carboxymethylcellulose (CMC)",106 % of control
same,T/C,"dose: 2700.0 mg/kg/injection, schedule: Q07DX Z (oral), vehicle: carboxymethylcellulose (CMC)",124 % of control
Nc1ccc(N)c(N)n1,T/C,"dose: 6.25 mg/kg/injection, schedule: Q04DX003 (ip), vehicle: saline",95 % of control
same,T/C,"dose: 12.5 mg/kg/injection, schedule: Q04DX003 (ip), vehicle: saline",97 % of control
same,T/C,"dose: 15.0 mg/kg/injection, schedule: Q01DX001 (ip), vehicle: saline",107 % of control
same,T/C,"dose: 25.0 mg/kg/injection, schedule: Q04DX003 (ip), vehicle: saline",97 % of control
same,T/C,"dose: 30.0 mg/kg/injection, schedule: Q01DX001 (ip), vehicle: saline",107 % of control
same,T/C,"dose: 60.0 mg/kg/injection, schedule: Q01DX001 (ip), vehicle: saline",97 % of control
